Measurements taken from patent publication US4522815A, “Anthracycline glycosides” (priority 1982, dated 1985).
In brackets after ≈: the same amount, converted by molar mass.

Tests used:
[1] = test system: ascitic P388 leukemia; test: Antitumor activity against ascitic P388 leukemia in CDF-1 mice, treatment i.p. on day 1; type: in vivo; details: Table 5; 0.75 mg/kg i.p. day 1
Description: The primary screening […] was carried out in CDF-1 mice bearing ascitic P388 leukemia (10^6 cells/mouse). Both IIa and IIc were suspended in 10%. Tween 80 and injected intraperitoneally.
Results of the primary screening "in vivo" carried out in CDF-1 mice bearing P388 ascitic leukemia and treated i.p. the day after tumor transplantation, are reported in Table 5.
Antitumor activity against ascitic P388 leukekemia.
(§1) Treatment i.p. on day 1.
^a median survival time; % over untreated controls
^b long term survivors (≥ 60 days)
^c evaluated on the basis of autoptic findings on dead mice
(§2) ^d data of two experiments (range)
^e date of three experiments (range)
Antitumor activity of Ib and Id against ascitic P388
as §1

[2] = test system: Gross leukemia; test: Oral activity against i.v. transplanted Gross leukemia (i.v. comparators); type: in vivo, C3H/Me mice; details: Table 7, oral +1
Text: Results of studies performed in C3H/Me mice carrying i.v. transplanted Gross leukemia and treated i.v. the day after tumor transplantation, are reported in Table 6. […] The compounds Ib and Id were further investigated for oral activity on Gross leukemic transplanted i.v., in comparison with DNR, DX given i.v. and 4-dm DNR given oral route.
Oral activity of Ib and Id against Gross leukemia
^a days after transplantation
as §2

[3] = test system: HeLa cells; test: Colony inhibition test against HeLa cells in vitro (cloning efficiency), treatment for 24 hrs; type: cell-based; details: Homo sapiens, HeLa, 24 h, Table 3, 24 hrs
[4] = test system: Gross leukemia; details: already demonstrated; cited from earlier work

In the case of `CC(=O)[C@]1(O)Cc2c(O)c3c(c(O)c2[C@@H](O[C@H]2C[C@H](N)[C@H](O)[C@H](C)O2)C1)C(=O)c1ccccc1C3=O` [4-dm DNR, 4-demethoxy DNR, reference compound], the “LTS, long term survivors (≥ 60 days)” value [1] is reported as 0/8, the “T/C, median survival time; % over untreated controls” value [1] is reported as 163% and the “Toxic deaths (autoptic findings on dead mice)” value [1] is reported as 0/8. The “T/C %, median survival time” value ([2]; 3 mg/kg) was 150%, the Toxic deaths ([2]; 3 mg/kg) was 0/6 and the “T/C %, median survival time” value ([2]; 3.6 mg/kg) was 150%. For the same molecule, the Toxic deaths ([2]; 3.6 mg/kg) was 0/6, the “T/C %, median survival time” value ([2]; 4.3 mg/kg) was 216% and the Toxic deaths ([2]; 4.3 mg/kg) was 0/3. For the same molecule, the activity at 0.0031 µg/mL ([3]; 3.1 ng/ml, read-out: No of colonies, % of untreated controls) was 84%, the activity at 0.0062 µg/mL ([3]; 6.2 ng/ml, read-out: No of colonies, % of untreated controls) was 53% and the activity at 0.0125 µg/mL ([3]; 12.5 ng/ml, read-out: No of colonies, % of untreated controls) was 18%. For the same molecule, the activity at 0.025 µg/mL ([3]; 25 ng/ml, read-out: No of colonies, % of untreated controls) was 0%, the IC50 ([3]; HeLa colony inhibition, read-out: ID50 (the source's name)) was about 6.3 ng/mL (≈ 0.0127 µM) and the “activity by oral route” value [4] was “active by oral route”.
